Several values for one entry are separate records, joined by “and”; a condition that tells them apart may be missing. Identical values can stand only once. Like-named read-outs stand apart in the source and are kept apart here.
Experiments:
H1975 = test: MTT cell viability assay, H1975; format: cell-based, human; conditions: Homo sapiens, MTT, value (95% CI), read-out: CC50 (µM) (CI) H1975
Method: (§1) The cytotoxic activity of compounds 3–13 was determined based on an MTT assay against different human tumor cell lines, using LASSBio-1586 (2), LASSBio-1735 (3), CA-4 (1) and pelitinib as standards (Table 2). To determine the cytotoxic selectivity index, compounds were also evaluated toward human lymphocytes (Table 3).
(§2) The target compounds were tested (0.0001–100 µM) for cytotoxic activity against selected human cancer cell lines, such as HL-60 (acute promyelocytic leukemia), MCF-7 (mammary adenocarcinoma), PC-3 (prostate adenocarcinoma), H1975 (non-small cell lung cancer—EGFR^L858R+T790M), PC-9 (non-small cell lung cancer—EGFR^L858R) H292 (mucoepidermoid pulmonary carcinoma—EGFR wild type), LoVo (colorectal adenocarcinoma—EGFRwild type) and GM16000 (lymphocyte). All the human cancer cell lines were purchased from Cell Bank of Rio de Janeiro—BCRJ. They were cultured in RPMI 1640 medium with 10% (v/v) FBS, 2 mM glutamine, at 37 °C in a humidified incubator containing 5% CO2.
(§3) The cytotoxicity of the compounds was evaluated by the MTT assay. […] For lymphocytic lines, a density of 0.3 × 10^6 cells/mL was used. Afterwards they were treated with varying concentrations of the target compounds 2–12 (0.0001–100 µM), CA-4 (1) and pelitinib at 37 °C, in triplicate. The medium was incubated with 20 μL of 5 mg/mL MTT solution for 3 h in a humidified incubator containing 5% CO2 [11].
(§4) The purple-colored formazan crystals formed in the wells were dissolved in DMSO and their absorbance was measured at 595 nm with a microplate reader (SpectraMax M5, Molecular Devices).

HL-60 [1] = test: MTT cell viability assay, HL-60; format: cell-based, human; conditions: MTT, value (95% CI), read-out: CC50 (µM) (CI) HL-60
Method: as §1, §2, §3, §4

[2] = MTT cell viability assay, GM16000 lymphocytes; format: cell-based; conditions: GM16000 lymphocyte cells (non-tumor), human lymphocytes, value (95% CI)
Method: as §1
To establish the cytotoxic selective index (SI) of LASSBio-1586 homologs, they were studied on human lymphocyte cell lines (GM16000), using the MTT assay. The SI was calculated by the ratio between the CC50 on tumor and non-tumor cell lines. Although there is no consensus, values of SI ≥ 10 is considered satisfactory to assign safety to a new cytotoxic agent. This value means that the compound is more than ten times more cytotoxic to the tumor cell line than to normal cell line.
as §2
(§5) The cytotoxicity of the compounds was evaluated by the MTT assay. The cell lines were cultured in 96 well plates for 72 h with a density of 0.1 × 10^5 cells/mL to 0.7 × 10^5 cells/mL to adherent cell lines. For lymphocytic lines, a density of 0.3 × 10^6 cells/mL was used. Afterwards they were treated with varying concentrations of the target compounds 2–12 (0.0001–100 µM), CA-4 (1) and pelitinib at 37 °C, in triplicate. The medium was incubated with 20 μL of 5 mg/mL MTT solution for 3 h in a humidified incubator containing 5% CO2 [11].
as §4

MCF-7 = test: MTT cell viability assay, MCF-7; format: cell-based, human; conditions: MTT, 72 h, value (95% CI), read-out: CC50 (µM) (CI) MCF-7
Method: as §1, §2, §5, §4

HL-60 [3] = test system: HL-60; design: method as in PMID 24614859; conditions: cited from earlier work
[4] = test system: EGFR in PC-9 cell line (EGFR^L858R); test: Guava Muse EGFR-RTK Activation Dual Detection Kit, flow cytometry; format: cell-based, human; conditions: PC-9, LASSBio-2070 0.03 µM
Method: Flow cytometry was applied to help elucidate the mechanism of action of the studied compounds, both to verify the cell cycle phase and to verify the action on EGFR protein kinase.
The anti-tubulin effect was evaluated by seeding H1975, H292 and PC-9 into 6-well plates at a density of 2 × 10^5 per well. The cells were treated with the selected compounds for 72 h. Cells were harvested and stained according to the protocols of The Guava Muse® Cell Cycle Kit (MCH100106) to quantitatively measure the percentage of cells in the G2/M phases of the cell cycle and the EGFR-RTK Activation Dual Detection Kit (MCH200102) (Luminex®) to measure EGFR phosphorylation in relation to total EGFR expression in the cell population, according to the manufacturer’s instructions for use in test kits using a Guava Muse® Cell Analyzer (Luminex®). Each experiment was performed at least three times independently.

β-tubulin = test system: β-tubulin; design: method as in PMID 24614859, PMID 30006065, PMID 25564377; conditions: cited from earlier work
SF-295 = test system: SF-295; design: method as in PMID 24614859, PMID 30006065, PMID 25564377; conditions: cited from earlier work
HCT-116 = test system: HCT-116; design: method as in PMID 24614859, PMID 30006065, PMID 25564377; conditions: cited from earlier work
[5] = Homo sapiens, HL-60, 48 h, 48 h
[6] = Homo sapiens, HL-60, 72 h, 72 h

Row | melting point | SMILES | CC50 (H1975; NCI-H1975, 48 h, 48 h) [µM] | CC50 (H1975; NCI-H1975, 72 h, 72 h) [µM] | CC50 (HL-60 [1]; [5]) [µM] | CC50 (HL-60 [1]; [6]) [µM] | CC50 at 72 h [2] [µM] | CC50 (MCF-7; Homo sapiens, MCF7, 72 h) [µM] | cytotoxic potency against HL-60 compared with LASSBio-1586 (2) (HL-60 [3]) | CC50 (MCF-7) [µM] | modulation of EGFR activity in a phenotypic model [4] | CC50 (HL-60 [1]; 72 h) [µM] | ability to inhibit β-tubulin (β-tubulin) | proliferation of SF-295 in the Hollow Fiber Assay (SF-295) | proliferation of HCT-116 in the Hollow Fiber Assay (HCT-116)
1 | 91 to 92 °C and 91.67 °C | CCOC(=O)CN(/N=C/c1ccccc1)C(=O)c1cc(OC)c(OC)c(OC)c1 [LASSBio-2074 (11), Ethyl (E)-N-(benzylideneamino)-N-(3,4,5-trimethoxybenzoyl)glycinate] | 4.83 | 1.2 | 5.69 | 0.126 | 4.19 | 0.869 |  |  |  |  |  |  | 
2 | 110 °C and 110.56 °C | COc1cc(C(=O)N(C)/N=C/c2ccccc2)cc(OC)c1OC [LASSBio-1735 (3), (E)-N’-benzylidene-3,4,5-trimethoxy-N-methylbenzohydrazide] | 0.096 | 0.079 | 8.77 | 0.039 | 0.131 | 0.28 | cytotoxic potency superior to LASSBio-1586 (2) | 0.276 |  |  |  |  | 
3 | 130 to 131 °C and 130.12 °C | COc1cc(C(=O)N(Cc2ccccc2)/N=C/c2ccccc2)cc(OC)c1OC [LASSBio-2070 (10), (E)-N-benzyl-N’-benzylidene-3,4,5-trimethoxybenzohydrazide] | 0.903 | 2.79 | 6.29 | 0.172 | 1.05 | 1.7 |  |  | inhibiting the phosphorylation of EGFR |  |  |  | 
4 |  | COc1cc(C(=O)N/N=C/c2ccccc2)cc(OC)c1OC [LASSBio-1586 (2), (E)-N’-benzylidene-3,4,5-trimetoxybenzohydrazide] | 2.02 | 1.57 | 3.59 | 2.08 | 1.51 | 7.53 |  |  |  | 2.13 | confirmed | able to decrease proliferation | able to decrease proliferation
